Reference: US20110182946A1, “Formation of Nanostructured Particles of Poorly Water Soluble Drugs and Recovery by Mechanical Techniques” (BOARD OF REGENTS, THE UNIVERSITY OF TEXAS SYSTEM, priority 2008, published 2011)
Values after ≈ are worked out from the molar mass of the structure shown.

Columns and labels:
[1] = Equilibrium solubility of crystalline ITZ; format: physicochemical; conditions: thermodynamic from solid
[2] = pH 6.8 buffer without addition of 0.17% SDS; cited from earlier work

CCC(C)n1ncn(-c2ccc(N3CCN(c4ccc(OCC5COC(Cn6cncn6)(c6ccc(Cl)cc6Cl)O5)cc4)CC3)cc2)c1=O (stereo not drawn) [ITZ, itraconazole]
solubility thermodynamic ([1]; acidic media, pH 1.2, simulated gastric fluid): 4.4 µg/mL (≈ 6.24 µM)
solubility at 18 h ([1]; pH 6.8 phosphate buffer with 0.17% SDS, aqueous with cosolvent or surfactant or cyclodextrin, pH 6.8 media with 0.17% SDS, 37.2° C.): 14 µg/mL (≈ 19.8 µM)
equilibrium solubility [2]: about 1 ng/mL
